Bounds are passed on as bounds.

In this assay the target is T1, Glucose-6-phosphate 1-dehydrogenase (Leuconostoc mesenteroides, UniProt P11411).
T1 sequence (P11411 whole entry): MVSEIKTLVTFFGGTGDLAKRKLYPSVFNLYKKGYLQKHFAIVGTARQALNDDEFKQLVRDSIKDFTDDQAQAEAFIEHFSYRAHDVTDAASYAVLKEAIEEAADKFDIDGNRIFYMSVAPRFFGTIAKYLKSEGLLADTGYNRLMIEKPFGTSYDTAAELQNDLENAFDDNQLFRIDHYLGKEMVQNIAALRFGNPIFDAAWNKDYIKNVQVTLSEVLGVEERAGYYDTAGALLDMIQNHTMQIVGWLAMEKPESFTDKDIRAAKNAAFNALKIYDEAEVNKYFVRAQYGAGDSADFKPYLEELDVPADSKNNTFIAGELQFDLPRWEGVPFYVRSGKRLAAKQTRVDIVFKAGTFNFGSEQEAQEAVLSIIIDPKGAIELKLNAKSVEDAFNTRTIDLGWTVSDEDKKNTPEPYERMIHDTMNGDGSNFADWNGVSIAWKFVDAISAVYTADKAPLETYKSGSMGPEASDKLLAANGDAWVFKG
In words: Leuconostoc G6PDH inhibition potency, SAR follow-up, counter-screen for TbHK1 inhibitor project, biochemical, analogue series, IC50 (AID 2579).
In turn, `COc1ccc(C(=O)Nc2cc(F)ccc2C(=O)O)cc1` [KSC-6-276] had a half-inhibitory concentration (IC50) greater than 25 µM.

Take `CCc1ccc(C(=O)Nc2cc(Cl)ccc2C(=O)O)cc1` [KSC-6-279]: the IC50 was greater than 25 µM.

`OB1OCc2cc(C(F)(F)F)ccc21` [KSC-6-287] gave an IC50 greater than 25 µM.

As to `N#Cc1ccc(Oc2ccc3c(c2)B(O)OC3)cc1` [KSC-6-289], the IC50 is greater than 25 µM.

`O=c1c2cc(C(F)(F)F)ccc2sn1-c1ccccc1` [KSC-09-037] came in with an IC50 greater than 25 µM.

The compound `COc1ccc2sn(-c3ccccc3)c(=O)c2c1` [KSC-09-048] returned an IC50 greater than 25 µM.

Turning to `CN(C)c1ccc(NC(=O)Cn2sc3ccccc3c2=O)cc1` [KSC-09-127C], the IC50 was greater than 25 µM.

`CN(C)c1cccc(NC(=O)Cn2sc3ccccc3c2=O)c1` [KSC-09-148-9]: the IC50 was greater than 25 µM.

In turn, `O=C(Cn1sc2ccccc2c1=O)Nc1ccccc1F` [KSC-09-149A] showed an IC50 greater than 25 µM.

`CC(C)(C)c1ccc(C(=O)Nc2cc(Cl)ccc2C(=O)O)cc1` [KSC-18-037] displayed an IC50 greater than 25 µM.

On to `O=c1c2ccccc2sn1-c1cccc(F)c1` [KUC103653N], for which the IC50 is greater than 25 µM.

`O=c1s[nH]c2ccccc12` [KUC103850N] displayed an IC50 greater than 25 µM.

Take `Cn1sc(=O)c2ccccc21` [KUC103851N]: the IC50 was greater than 25 µM.

For the compound `COc1ccccc1-n1sc2ccccc2c1=O` [KUC103854N], the IC50 is greater than 25 µM.

`O=c1c2cc([N+](=O)[O-])ccc2sn1-c1ccccc1` [KUC103868N]: the IC50 was greater than 25 µM.

For the compound `Cc1ccccc1N1Cc2ccccc2C1=O` [KUC103869N], the IC50 is greater than 25 µM.

Take `COc1ccc(NC(=O)c2ccccc2SCc2ccccc2)cc1` [KUC103881N]: the IC50 is greater than 25 µM.

As to `O=c1c2ccccc2sn1-c1ccc(Cl)cc1Cl` [KUC103882N], the IC50 is greater than 25 µM.

With `O=C(Cn1sc2ccccc2c1=O)Nc1ccccc1` [KUC104122N], the IC50 is greater than 25 µM.

Compound `CC(=O)Nc1ccc2c(=O)n(-c3ccccc3)sc2c1` [KUC104218N] displayed an IC50 greater than 25 µM.

In turn, `Cc1ccc(NC(=O)Cn2sc3ccccc3c2=O)cc1` [KUC104219N] returned a half-maximal inhibitory concentration (IC50) greater than 25 µM.

The compound `COc1cccc(NC(=O)Cn2sc3ccccc3c2=O)c1` [KUC104220N] showed an IC50 greater than 25 µM.

`O=C(Cn1sc2ccccc2c1=O)Nc1cccc(C(F)(F)F)c1` [KUC104221N] registered an IC50 greater than 25 µM.

Turning to `O=C(Cn1sc2ccccc2c1=O)Nc1cccc(I)c1` [KUC104222N], the IC50 is greater than 25 µM.

On to `N#Cc1ccc2sn(-c3ccccc3)c(=O)c2c1` [KUC104224N], for which the IC50 was greater than 25 µM.

Regarding `O=c1c2cc(F)c(F)cc2sn1-c1ccccc1` [KUC104549N], the IC50 is greater than 25 µM.

The compound `N#Cc1ccc(NC(=O)Cn2sc3ccccc3c2=O)cc1` [KUC104552N] returned an IC50 greater than 25 µM.

In turn, `CCOC(=O)Cn1sc2ccccc2c1=O` [KUC104555N] came in with an IC50 greater than 25 µM.

For `O=C(Nc1ccccc1)n1sc2ccccc2c1=O` [KUC105339N], the IC50 is greater than 25 µM.

`O=C(Cn1sc2ccccc2c1=O)Nc1ccc(C(F)(F)F)cc1` [KUC105341N] returned an IC50 greater than 25 µM.

`O=C(c1ccccc1)n1sc2ccccc2c1=O` [KUC105344N] returned an IC50 greater than 25 µM.

As for `O=C(Cn1sc2ccccc2c1=O)N1CCOCC1` [KUC105406N], the IC50 was greater than 25 µM.

Turning to `COc1ccc2c(=O)n(-c3ccccc3)sc2c1` [KUC105410N], the IC50 was greater than 25 µM.

In turn, `O=C(Cn1sc2ccccc2c1=O)Nc1ccccc1C(F)(F)F` [KUC105610N] came in with an IC50 greater than 25 µM.

`COc1ccc(C(=O)Nc2cc(OC)ccc2C(=O)O)cc1` [KUC105624N] showed an IC50 greater than 25 µM.

Turning to `COc1ccc(NC(=O)Nc2ccccc2C(=O)O)cc1` [KUC105625N], the IC50 is greater than 25 µM.

In turn, `COc1ccc(C(=O)Nc2ccc(Cl)cc2C(=O)O)cc1` [KUC105713N] gave an IC50 greater than 25 µM.

In the case of `COc1ccc(-c2cc3ccccc3[nH]2)cc1` [KUC105790N], the IC50 is greater than 25 µM.

Take `COC(=O)c1ccc(Cl)cc1NC(=O)c1ccc(OC)cc1` [KUC105792N]: the IC50 was greater than 25 µM.

Compound `COc1ccc(NC(=O)c2ccc(Cl)cc2C(=O)O)cc1` [KUC105925N] had an IC50 greater than 25 µM.

`O=C(Nc1cc(Cl)ccc1C(=O)O)c1ccsc1` [KUC105926N] came in with an IC50 greater than 25 µM.

Compound `CC(=O)Nc1cc(Cl)ccc1C(=O)O` [KUC105931N] yielded an IC50 greater than 25 µM.

On to `O=C(O)c1ccc(Cl)cc1NC(=O)N1CCOCC1` [KUC105933N], for which the IC50 was greater than 25 µM.

`O=C(Nc1cc(Cl)ccc1C(=O)O)c1cocn1` [KUC105934N] came in with an IC50 greater than 25 µM.

The compound `COc1ccc(C(=O)Nc2cc(Cl)ccc2-c2nnn[nH]2)cc1` [KUC105991N] yielded an IC50 greater than 25 µM.

The compound `O=C(Nc1cc(Cl)ccc1C(=O)O)c1ccc(OC(F)(F)F)cc1` [KUC105992N] came in with an IC50 greater than 25 µM.

As for `COc1ccc(CC(=O)Nc2cc(Cl)ccc2C(=O)O)cc1` [KUC105993N], the IC50 is greater than 25 µM.

For `CN(C)c1ccc(C(=O)Nc2cc(Cl)ccc2C(=O)O)cc1` [KUC105997N], the concentration for half-maximal inhibition (IC50) was greater than 25 µM.

`CCCCCCCC(=O)Nc1cc(Cl)ccc1C(=O)O` [KUC106002N]: the IC50 was greater than 25 µM.

Take `O=C(Nc1cc(Cl)ccc1C(=O)O)c1ccc2c(c1)OCO2` [KUC106004N]: the IC50 is greater than 25 µM.

The compound `COc1ccc(C(=O)Nc2ccccc2C(=O)O)cc1` [KUC106458N] had an IC50 greater than 25 µM.

`CC(C)c1cccc(C(=O)Nc2cc(Cl)ccc2C(=O)O)c1` [KUC106459N] registered an IC50 greater than 25 µM.

`O=C(O)c1ccc(Cl)cc1NC(=O)C1CCOCC1` [KUC106462N] returned an IC50 greater than 25 µM.

`O=C(Nc1cc(Cl)ccc1C(=O)O)c1ccc(-c2cccs2)cc1` [KUC106464N]: the IC50 is greater than 25 µM.

`O=C(Nc1cc(Cl)ccc1C(=O)O)c1ccc2c(c1)CCC2` [KUC106492N] had an IC50 greater than 25 µM.

On to `Cc1ccc(C(=O)Nc2cc(Cl)ccc2C(=O)O)cc1C` [KUC106495N], for which the IC50 is greater than 25 µM.

For `O=C(Nc1cc(Cl)ccc1C(=O)O)c1ccc(C2CC2)cc1` [KUC106496N], the concentration for half-maximal inhibition (IC50) was greater than 25 µM.

Regarding `O=C(Cn1sc2ccccc2c1=O)Nc1ccccc1Cl` [N-(2-chlorophenyl)-2-(3-oxidanylidene-1,2-benzothiazol-2-yl)ethanamide], the IC50 is greater than 25 µM.

With `O=C(Cn1sc2ccccc2c1=O)Nc1ccccc1I` [N-(2-iodanylphenyl)-2-(3-oxidanylidene-1,2-benzothiazol-2-yl)ethanamide], the IC50 is greater than 25 µM.

`COc1ccccc1NC(=O)Cn1sc2ccccc2c1=O` [N-(2-methoxyphenyl)-2-(3-oxidanylidene-1,2-benzothiazol-2-yl)ethanamide] yielded an IC50 greater than 25 µM.

Compound `COc1ccc(C(=O)Nc2cc(F)cc(F)c2O)cc1` [N-(3,5-difluoro-2-hydroxyphenyl)-4-methoxybenzamide] showed an IC50 greater than 25 µM.

For `O=C(Cn1sc2ccccc2c1=O)Nc1cccc(Br)c1` [N-(3-bromophenyl)-2-(3-oxo-1,2-benzothiazol-2-yl)acetamide], the IC50 is greater than 25 µM.

`O=C(Cn1sc2ccccc2c1=O)Nc1cccc(F)c1` [N-(3-fluorophenyl)-2-(3-oxo-1,2-benzothiazol-2-yl)acetamide] registered an IC50 greater than 25 µM.

Compound `O=C(Cn1sc2ccccc2c1=O)Nc1ccc(Br)cc1` [N-(4-bromophenyl)-2-(3-oxo-1,2-benzothiazol-2-yl)acetamide] gave an IC50 greater than 25 µM.

`O=C(Cn1sc2ccccc2c1=O)Nc1ccc(Cl)cc1` [N-(4-chlorophenyl)-2-(3-oxidanylidene-1,2-benzothiazol-2-yl)ethanamide] yielded an IC50 greater than 25 µM.

On to `O=C(Cn1sc2ccccc2c1=O)Nc1ccc(F)cc1` [N-(4-fluorophenyl)-2-(3-oxo-1,2-benzothiazol-2-yl)acetamide], for which the IC50 was greater than 25 µM.

As for `O=C(Cn1sc2ccccc2c1=O)Nc1ccc(I)cc1` [N-(4-iodophenyl)-2-(3-oxo-1,2-benzothiazol-2-yl)acetamide], the IC50 was greater than 25 µM.

Turning to `O=C(NCc1ccccc1)n1sc2ccccc2c1=O` [N-benzyl-3-oxo-1,2-benzothiazole-2-carboxamide], the IC50 was greater than 25 µM.

Consider `CN(Cc1ccccc1)C(=O)Cn1sc2ccccc2c1=O` [N-benzyl-N-methyl-2-(3-oxo-1,2-benzothiazol-2-yl)acetamide], for which the IC50 was greater than 25 µM.

For `COC(=O)c1cc(Cl)ccc1NC(=O)c1ccc(OC)cc1` [methyl 5-chloranyl-2-[(4-methoxyphenyl)carbonylamino]benzoate], the IC50 is greater than 25 µM.

In turn, `COc1ccc(C(=O)NC(CC(=O)O)c2ccccc2)cc1` (stereo unspecified) [sodium;3-[(4-methoxybenzoyl)amino]-3-phenylpropanoate] came in with an IC50 greater than 25 µM.

Values taken from BindingDB's records for doi:10.7270/Q2C53J9J (University of Pittsburgh, 2010).
